Measurements from patent publication US20090326037A1 (priority 2005, published 2009).
Values joined by “and” are separate entries in the source; they are usually repeats but may differ in a detail not shown here. Equal values may be shown once. Read-outs that look alike come from different tables or passages of the source.

Tests used:
[1] = system: influenza A/Singapore/1/57 virus; experiment: microbe, parasite or virus in culture; assay type: cell-based; details: for Percent of inhibition of OD 490: two values: A series, added 2 hours after infection; for suppression of reproduction: ten times greater amount (than 3.3 mg) of zanamivir or oseltamivir without the addition of arbidol
[2] = system: avian influenza virus (H5N1); assay type: in vivo, white mice; details: Oseltamivir 2.5 mg/kg alone (Arbidol 0 mg/kg), orally
[3] = Toxicity (lethal effect, LD50) in mice; assay type: in vivo
Procedure: (§1) Determination of toxicity of 1-methyl-2-phenylthiomethyl-3-carbethoxy-5-oxy-6-bromindol sulfon as compared with arbidol.
(§2) The administration of the preparations was carried out endogastrically, the period of observation of the animals was 14 days.

[4] = Toxicity (lethal effect, LD50) in rats; assay type: in vivo
Procedure: as §1, §2

[5] = system: influenza virus H3N2; assay type: in vivo, mice
[6] = system: influenza virus A/PR/8/34; assay type: cell-based; details: influenza virus A/PR/8/34, MDCK cells; concentration not given
[7] = Dose 100 mg/kg, endogastrically, observation 14 days
[8] = Dose 250 mg/kg, endogastrically, observation 14 days
[9] = Dose 500 mg/kg, endogastrically, observation 14 days
[10] = Dose 1000 mg/kg, endogastrically, observation 14 days
[11] = Dose 3000 mg/kg, endogastrically, observation 14 days
[12] = Dose 5000 mg/kg, endogastrically, observation 14 days
[13] = Dose 7500 mg/kg, endogastrically, observation 14 days

## CCOC(=O)C1=C[C@@H](OC(CC)CC)[C@H](NC(C)=O)[C@@H](N)C1 [Oseltamivir]
[1]; Oseltamivir 0.4 μg alone (A or C 0 μg/ml), C series
  Percent of inhibition of OD 490: 36% and 18%
[1]; Oseltamivir 4.1 μg alone (A or C 0 μg/ml), C series
  Percent of inhibition of OD 490: 37% and 20%
[1]; Oseltamivir 12.3 μg alone (A or C 0 μg/ml), C series
  Percent of inhibition of OD 490: 48% and 34%
[1]; Oseltamivir 41 μg alone (A or C 0 μg/ml), C series
  Percent of inhibition of OD 490: 52% and 36%
[1]
  suppression of reproduction: 50%
[2]
  Surviving mice, %: 60%

## CCOC(=O)c1c(CS(=O)(=O)c2ccccc2)n(C)c2cc(Br)c(O)cc12 [Sulfon, 1-methyl-2-phenylthiomethyl-3-carbethoxy-5-oxy-6-bromindol sulfon]
[3]; [7]
  Lethal effect upon administration to mice: 0/6
[3]; [8]
  Lethal effect upon administration to mice: 0/6
[3]; [9]
  Lethal effect upon administration to mice: 0/6
[3]; [10]
  Lethal effect upon administration to mice: 0/6
[3]; [11]
  Lethal effect upon administration to mice: 2/6
[3]; [12]
  Lethal effect upon administration to mice: 4/6
[3]; [13]
  Lethal effect upon administration to mice: 6/6
[3]; Table 5 (mice and rats), endogastrically
  toxicity as compared with arbidol: significantly less toxic than arbidol
[3]; mice, sulfon LD50 versus arbidol LD50
  LD50 relative to arbidol: 4 times
[3]; mouse, in vivo, oral, mice, endogastrically, observation 14 days
  LD50 at 14 days: 3600 ± 180 mg/kg
[4]; [7]
  Lethal effect upon administration to rats: 0/6
[4]; [8]
  Lethal effect upon administration to rats: 0/6
[4]; [9]
  Lethal effect upon administration to rats: 0/6
[4]; [10]
  Lethal effect upon administration to rats: 0/6
[4]; [11]
  Lethal effect upon administration to rats: 2/6
[4]; [12]
  Lethal effect upon administration to rats: 4/6
[4]; [13]
  Lethal effect upon administration to rats: 6/6
[4]; rat, in vivo, oral, rats, endogastrically, observation 14 days
  LD50 at 14 days: 5350 ± 250 mg/kg
[4]; rats, sulfon LD50 versus arbidol LD50
  LD50 relative to arbidol: 3 times
[5]; Concentration 15
  Percent of surviving mice: 90%
[5]; Concentration 30
  Percent of surviving mice: 70%
[5]; Concentration 100
  Percent of surviving mice: 40% and 50% and 60%
[5]; mouse, in vivo
  antiviral action in vivo as compared with arbidol: comparable with the action of arbidol
[6]
  Percent of suppression of virus reproduction: 75%

## CC(=O)N[C@H]1[C@H]([C@H](O)[C@H](O)CO)OC(C(=O)O)=C[C@@H]1N=C(N)N [Zanamivir]
[1]; Zanamivir 0.3 μg alone (A or B 0 μg/ml), B series
  Percent of inhibition of OD 490: 27% and 15%
[1]; Zanamivir 1 μg alone (A or B 0 μg/ml), B series
  Percent of inhibition of OD 490: 29% and 15%
[1]; Zanamivir 3.3 μg alone (A or B 0 μg/ml), B series
  Percent of inhibition of OD 490: 36% and 20%
[1]; Zanamivir 10 μg alone (A or B 0 μg/ml), B series
  Percent of inhibition of OD 490: 43% and 22%
[1]; Zanamivir 33 μg alone (A or B 0 μg/ml), B series
  Percent of inhibition of OD 490: 49% and 28%
[1]
  suppression of reproduction: 50%
